BindingDB's records for doi:10.7270/Q2H70D7S (Burnham Center For Chemical Genomics, 2010)

Target: Kappa-type opioid receptor (Homo sapiens, UniProt P41145)
Experiment: kappa opioid receptor blockers, cell-based, luminescence, beta-arrestin, SAR follow-up (AID 2285)

Chain of Kappa-type opioid receptor (P41145 whole entry): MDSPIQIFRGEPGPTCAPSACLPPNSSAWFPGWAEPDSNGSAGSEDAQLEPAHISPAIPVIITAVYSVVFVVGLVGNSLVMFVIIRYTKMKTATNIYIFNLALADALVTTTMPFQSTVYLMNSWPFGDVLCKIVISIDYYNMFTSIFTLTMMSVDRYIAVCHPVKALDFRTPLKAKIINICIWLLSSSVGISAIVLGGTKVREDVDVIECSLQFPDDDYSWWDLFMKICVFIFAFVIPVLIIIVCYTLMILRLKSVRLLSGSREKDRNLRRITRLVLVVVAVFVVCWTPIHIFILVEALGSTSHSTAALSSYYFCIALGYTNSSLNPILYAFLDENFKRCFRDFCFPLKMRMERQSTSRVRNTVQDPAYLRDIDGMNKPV

IC50 | Compound
3.54 µM | CCC(N=Nc1ccnc2cc(Cl)ccc12)c1ccc(O)cc1 (configuration not stated) [4-[1-[2-(7-chloroquinolin-4-yl)hydrazinyl]propylidene]cyclohexa-2,5-dien-1-one]
10 µM | Oc1ccc(CN=Nc2ccnc3cc(Cl)ccc23)cc1O [(4Z)-4-[[2-(7-chloroquinolin-4-yl)hydrazinyl]methylidene]-2-hydroxycyclohexa-2,5-dien-1-one]
